Assay results from US20200121704A1, “METHODS FOR TREATING HYPERTENSION AND ARTERIAL STIFFNESS” (THE REGENTS OF THE UNIVERSITY OF COLORADO, A BODY CORPORATE, priority 2017, published 2020).

Tests used:
[1] = Comprehensive metabolic panel (blood chemistry, renal function, liver enzymes); format: in vivo, human
Procedure: (§1) Sixty subjects were consented for this study. This study was conducted in the Integrative Physiology of Aging Laboratory and the Clinical and Translational Research Center (CTRC) at the University of Colorado Boulder. All blood assays were performed at either Boulder Community Hospital or the University of Colorado Denver Anschutz Medical Campus CTRC Core Laboratory. All testing sessions were performed after an overnight fast and 24-hour abstention from exercise and alcohol consumption. All subjects refrained from all prescription medications for 24 hours and over the counter medications for 48 hours prior to all testing visits.
Clinical laboratory values were obtained from blood samples collected at the end of each intervention phase in 21 subjects. Complete blood work was not obtained in three subjects due to a failed catheterization during at least one of the testing phases.

[2] = system: healthy middle-aged and older adults; test: Treatment-emergent adverse events and tolerability, randomized double blinded placebo controlled crossover study; format: in vivo, human
Procedure: The inventors hypothesized that oral supplementation with the nicotinamide adenine dinucleotide (NAD+) increasing compound, nicotinamide riboside (NR) would reduce blood pressure (BP) and aortic pulse wave velocity (aPWV, a measure of large elastic artery stiffness). This hypothesis was tested in healthy middle-aged and older human adults (65±2 yrs, n=24) in a randomized, placebo-controlled crossover study.
as §1
A randomized, double blinded, placebo controlled crossover design was implemented for this study. Healthy middle-aged and older (55-79 years) adult men and postmenopausal women were recruited from the Boulder/Denver metro area. Subjects were nonsmokers and free of clinical diseases as assessed by a medical history, physical examination, blood chemistry and resting and exercise ECG. […] Four subjects dropped out of the study prior to randomization due to time commitment and one subject was unresponsive to scheduling requests resulting in a total of 30 remaining subjects for randomization. Of these, fifteen subjects were randomized to Group A, which received placebo pills during the first 6 weeks of the study before crossing over to receive NR pills for 6 weeks. The remaining fifteen subjects were randomized to Group B, which received NR pills first followed by placebo. One subject was excluded from Group A due to a change in medication status that no longer met inclusion criteria and two subjects in Group A dropped out of the study due to a complaint of side effects. Two subjects were excluded from Group B due to a change in health or medication status that no longer met inclusion criteria and one subject dropped out of Group B due to a broken ankle, resulting in a total of 24 subjects who completed the trial (FIG. 1). These subjects were well matched by age, sex and baseline characteristics between groups and all baseline values were within normal clinical ranges, as shown in Table 1:
14 treatment-emergent adverse events (AEs) were reported by 7 of the 30 participants enrolled in the study.

[3] = NR condition, end of 6-week phase, mean ± SEM, 21 subjects

With `NC(=O)c1ccc[n+]([C@@H]2O[C@H](CO)[C@@H](O)[C@H]2O)c1` [NR, nicotinamide riboside] the “ALT (SGPT)” value [1, 3] was 30.8 ± 2.4 IU/L, the “AST (SGOT)” value [1, 3] was 32.1 ± 1.5 IU/L and the BUN [1, 3] was 17 ± 1 mg/dL. For the same molecule, the CO2 [1, 3] was 26 ± 1 mEq/L, the albumin [1, 3] was 3.6 ± 0.1 g/dL and the alk phosphatase [1, 3] was 63.4 ± 2.9 IU/L. For the same molecule, the calcium [1, 3] was 9.2 ± 0.1 mg/dL, the chloride [1, 3] was 104 ± 1 mEq/L and the creatinine [1, 3] was 0.9 ± 0.03 mg/dL. The eGFR [1, 3] was 74 ± 3 ml/min/1.73 m^2, the glucose [1, 3] was 87 ± 1 mg/dL and the potassium [1, 3] was 4.2 ± 0.1 mEq/L. For the same molecule, the sodium [1, 3] was 139 ± 1 mEq/L, the total bilirubin [1, 3] was 0.8 ± 0.1 mg/dL and the total protein [1, 3] was 6.3 ± 0.1 g/dL. The “Difference between treatment conditions for blood chemistry (including markers of renal function and liver enzymes)” value ([1]; NR vs placebo) was “No meaningful differences”, the “Drowsiness, # events” value ([2]; NR condition, 6 weeks oral) was 0 (0) and the “Drowsiness, # events/patient” value ([2]; NR condition, 6 weeks oral) was 0 (0). For the same molecule, the “Fainting, # events” value ([2]; NR condition, 6 weeks oral) was 0 (0), the “Fainting, # events/patient” value ([2]; NR condition, 6 weeks oral) was 0 (0) and the “Flushing/Hot flashes, # events” value ([2]; NR condition, 6 weeks oral) was 1 (1). For the same molecule, the “Flushing/Hot flashes, # events/patient” value ([2]; NR condition, 6 weeks oral) was 1 (1), the “Headache, # events” value ([2]; NR condition, 6 weeks oral) was 0 (0) and the “Headache, # events/patient” value ([2]; NR condition, 6 weeks oral) was 0 (0). For the same molecule, the “Increased Bruising, # events” value ([2]; NR condition, 6 weeks oral) was 1 (1), the “Increased Bruising, # events/patient” value ([2]; NR condition, 6 weeks oral) was 1 (1) and the “Leg cramps, # events” value ([2]; NR condition, 6 weeks oral) was 1 (1). The “Leg cramps, # events/patient” value ([2]; NR condition, 6 weeks oral) was 1 (1), the “Nausea, # events” value ([2]; NR condition, 6 weeks oral) was 1 (1) and the “Nausea, # events/patient” value ([2]; NR condition, 6 weeks oral) was 1 (1). The “Skin Rash, # events” value ([2]; NR condition, 6 weeks oral) was 1 (1), the “Skin Rash, # events/patient” value ([2]; NR condition, 6 weeks oral) was 1 (1) and the “Severity of adverse events” value ([2]; all AEs) was “mild in severity”. The Tolerability ([2]; at the dose tested) was “well tolerated”, the Severe adverse events ([2]; during the study) was “No severe adverse events occurred” and the “Association of flushing with supplementation” value ([2]; flushing reported in both placebo and NR conditions) was “unlikely associated with NR supplementation”.
